Source: ChEMBL document CHEMBL4118132, “Novel 5-methyl-2-phenylphenanthridium derivatives as FtsZ-targeting antibacterial agents from structural simplification of natural product sanguinarine” (2018)
Converted amounts (≈) assume the structure as drawn. The source made the active and inactive calls. The calls are words filed in the database; no cut-off is given here.

Assays:
Staphylococcus aureus [1] = experiment: Potency index, ratio of ciprofloxacin MIC to test compound MIC for penicillin-resistant Staphylococcus aureus clinical isolate; format: functional
Staphylococcus aureus [2] = experiment: Antibacterial activity against penicillin-resistant Staphylococcus aureus clinical isolate after 24 hrs by broth microdilution method; format: functional
Staphylococcus aureus [3] = experiment: Potency index, ratio of ciprofloxacin MIC to test compound MIC for methicillin-resistant Staphylococcus aureus ATCC 43300; format: functional
Bacillus pumilus = experiment: Antibacterial activity against penicillin-susceptible Bacillus pumilus ATCC 63202 after 24 hrs by broth microdilution method; format: functional; settings: ATCC 63202, 24 h
Staphylococcus aureus [4] = experiment: Potency index, ratio of ciprofloxacin MIC to test compound MIC for penicillin-susceptible Staphylococcus aureus ATCC 25923; format: functional
Bacillus subtilis = experiment: Antibacterial activity against penicillin-susceptible Bacillus subtilis ATCC 9372 after 24 hrs by broth microdilution method; format: functional; settings: ATCC 9372, 24 h
[5] = test system: Staphylococcus epidermidis; experiment: Antibacterial activity against penicillin-resistant Staphylococcus epidermidis clinical isolate after 24 hrs by broth microdilution method; format: functional
Staphylococcus aureus [6] = experiment: Antibacterial activity against penicillin-susceptible Staphylococcus aureus ATCC 25923 after 24 hrs by broth microdilution method; format: functional; settings: ATCC 25923, 24 h
Staphylococcus aureus [7] = experiment: Antibacterial activity against methicillin-resistant Staphylococcus aureus ATCC 43300 after 24 hrs by broth microdilution method; format: functional; settings: ATCC 43300, 24 h
Streptococcus pyogenes [8] = experiment: Antibacterial activity against penicillin-resistant Streptococcus pyogenes after 24 hrs by broth microdilution method; format: functional
Escherichia coli = experiment: Antibacterial activity against penicillin-susceptible Escherichia coli ATCC 25922 after 24 hrs by broth microdilution method; format: functional; settings: ATCC 25922, 24 h
Streptococcus pyogenes [9] = experiment: Antibacterial activity against penicillin-susceptible Streptococcus pyogenes after 24 hrs by broth microdilution method; format: functional
Pseudomonas aeruginosa = experiment: Antibacterial activity against penicillin-susceptible Pseudomonas aeruginosa ATCC 27853 after 24 hrs by broth microdilution method; format: functional; settings: ATCC 27853, 24 h
Staphylococcus aureus [10] = experiment: Potency index, ratio of oxacillin sodium MIC to test compound MIC for penicillin-resistant Staphylococcus aureus clinical isolate; format: functional
Staphylococcus aureus [11] = experiment: Bactericidal activity against penicillin-susceptible Staphylococcus aureus ATCC 25923 after 24 hrs by flat colony counting method; format: functional; settings: ATCC 25923, 24 h
Staphylococcus aureus [12] = experiment: Potency index, ratio of oxacillin sodium MIC to test compound MIC for methicillin-resistant Staphylococcus aureus ATCC 43300; format: functional
Staphylococcus aureus [13] = experiment: Potency index, ratio of oxacillin sodium MIC to test compound MIC for penicillin-susceptible Staphylococcus aureus ATCC 25923; format: functional
[14] = target: T1, Cell division protein FtsZ (Bacillus subtilis) (UniProt A5Z1V5); experiment: Inhibition of penicillin-susceptible Bacillus subtilis ATCC 9372 N-terminal His6-tagged FtsZ expressed in Escherichia coli BL21 (DE3) cells at 10 ug/ml by fluorescence spectrophotometer-based light scattering assay
T1 sequence (whole entry): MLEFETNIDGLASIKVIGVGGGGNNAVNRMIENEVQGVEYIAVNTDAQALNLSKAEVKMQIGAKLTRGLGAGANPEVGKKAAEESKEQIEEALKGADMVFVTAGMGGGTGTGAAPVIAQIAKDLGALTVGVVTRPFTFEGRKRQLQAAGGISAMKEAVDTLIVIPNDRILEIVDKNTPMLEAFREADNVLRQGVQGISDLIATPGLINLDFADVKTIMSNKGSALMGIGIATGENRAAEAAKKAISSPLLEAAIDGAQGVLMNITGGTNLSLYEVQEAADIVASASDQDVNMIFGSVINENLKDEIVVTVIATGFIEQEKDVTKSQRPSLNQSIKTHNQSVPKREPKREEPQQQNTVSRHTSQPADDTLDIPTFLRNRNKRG

[15] = target: T2, Cell division protein FtsZ (Staphylococcus aureus) (UniProt P0A031); experiment: Inhibition of FtsZ in penicillin-susceptible Staphylococcus aureus ATCC 25923 assessed as increase in length of bacteria at 4 ug/ml after 5 hrs by phase-contrast light microscopic method
T2 sequence (whole entry): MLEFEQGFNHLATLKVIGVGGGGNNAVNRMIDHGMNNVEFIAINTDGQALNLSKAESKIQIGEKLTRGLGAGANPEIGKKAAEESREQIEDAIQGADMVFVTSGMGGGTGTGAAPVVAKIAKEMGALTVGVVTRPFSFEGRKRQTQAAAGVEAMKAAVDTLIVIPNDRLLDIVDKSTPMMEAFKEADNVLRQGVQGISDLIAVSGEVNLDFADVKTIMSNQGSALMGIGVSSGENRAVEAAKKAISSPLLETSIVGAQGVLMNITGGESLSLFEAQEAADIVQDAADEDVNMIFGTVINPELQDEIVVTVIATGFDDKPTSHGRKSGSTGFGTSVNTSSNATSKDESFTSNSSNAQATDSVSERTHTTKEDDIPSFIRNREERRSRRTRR

[16] = target: T1, Cell division protein FtsZ (Bacillus subtilis); experiment: Inhibition of FtsZ in penicillin-susceptible Bacillus subtilis ATCC 9372 assessed as increase in length of bacteria at 8 ug/ml after 5 hrs by phase-contrast light microscopic method
[17] = test system: Staphylococcus epidermidis; experiment: Potency index, ratio of ciprofloxacin MIC to test compound MIC for penicillin-resistant Staphylococcus epidermidis clinical isolate; format: functional
Streptococcus pyogenes [18] = experiment: Potency index, ratio of ciprofloxacin MIC to test compound MIC for penicillin-susceptible Streptococcus pyogenes; format: functional
[19] = target: T1, Cell division protein FtsZ (Bacillus subtilis); experiment: Inhibition of penicillin-susceptible Bacillus subtilis ATCC 9372 N-terminal His6-tagged FtsZ expressed in Escherichia coli BL21 (DE3) cells by fluorescence spectrophotometer-based light scattering assay
[20] = test system: Staphylococcus epidermidis; experiment: Potency index, ratio of oxacillin sodium MIC to test compound MIC for penicillin-resistant Staphylococcus epidermidis clinical isolate; format: functional
Streptococcus pyogenes [21] = experiment: Potency index, ratio of oxacillin sodium MIC to test compound MIC for penicillin-resistant Streptococcus pyogenes; format: functional
Streptococcus pyogenes [22] = experiment: Potency index, ratio of oxacillin sodium MIC to test compound MIC for penicillin-susceptible Streptococcus pyogenes; format: functional
Streptococcus pyogenes [23] = experiment: Potency index, ratio of ciprofloxacin MIC to test compound MIC for penicillin-resistant Streptococcus pyogenes; format: functional

Structure (SMILES)	Ratio (Staphylococcus aureus [1])	MIC (Staphylococcus aureus [2])	Ratio (Staphylococcus aureus [3])	MIC (Bacillus pumilus)	Ratio (Staphylococcus aureus [4])	MIC (Bacillus subtilis)	MIC [5]	MIC (Staphylococcus aureus [6])	MIC (Staphylococcus aureus [7])	MIC (Streptococcus pyogenes [8])	MIC (Escherichia coli)	MIC (Streptococcus pyogenes [9])	MIC (Pseudomonas aeruginosa)	Ratio (Staphylococcus aureus [10])	MBC (Staphylococcus aureus [11])	Ratio (Staphylococcus aureus [12])	Ratio (Staphylococcus aureus [13])	further results
Cc1cc(-c2ccc(OC(F)(F)F)cc2)cc2c3ccccc3c[n+](C)c12.[Cl-]	4 - 64	1 µg/mL	64	0.125 µg/mL	133	0.125 µg/mL	0.25 µg/mL	0.06 µg/mL	0.25 µg/mL	4 µg/mL	> 64 µg/mL	2 µg/mL	> 64 µg/mL	16 - 256	16 µg/mL	256	67	
COc1ccc(-c2cc(C)c3c(c2)c2ccccc2c[n+]3C)cc1.[Cl-]	4 - 64	4 µg/mL	4 - 164	4 µg/mL	8 - 133	2 µg/mL	2 µg/mL	0.5 µg/mL	4 µg/mL	8 µg/mL	> 64 µg/mL	8 µg/mL	> 64 µg/mL	16 - 256	> 64 µg/mL	16 - 256	4 - 67	
O=C(O)c1cn(C2CC2)c2cc(N3CCNCC3)c(F)cc2c1=O [CIPROFLOXACIN]				8 µg/mL (≈ 24.1 µM)		2 µg/mL (≈ 6.04 µM)		8 µg/mL (≈ 24.1 µM)		> 64 µg/mL		8 µg/mL (≈ 24.1 µM)						inhibition [14]: Active
Cc1ccc(-c2cc(C)c3c(c2)c2ccccc2c[n+]3C)cc1.[Cl-]	4 - 64	1 µg/mL	4 - 164	2 µg/mL	8 - 133	0.5 µg/mL	2 µg/mL	0.5 µg/mL	2 µg/mL	4 µg/mL	> 64 µg/mL	4 µg/mL	> 64 µg/mL	16 - 256	32 µg/mL	16 - 256	4 - 67	
Cc1cc(-c2ccccc2C(F)(F)F)cc2c3ccccc3c[n+](C)c12.[Cl-]	4 - 64	1 µg/mL	4 - 164	2 µg/mL	8 - 133	0.5 µg/mL	0.5 µg/mL	0.5 µg/mL	1 µg/mL	2 µg/mL	> 64 µg/mL	2 µg/mL	> 64 µg/mL	16 - 256	32 µg/mL	16 - 256	4 - 67	
C[n+]1cc2c3c(ccc2c2ccc4cc5c(cc4c21)OCO5)OCO3.[Cl-] [SANGUINARIUM CHLORIDE]		4 µg/mL		4 µg/mL		4 µg/mL	8 µg/mL	8 µg/mL	8 µg/mL	4 µg/mL	> 64 µg/mL	4 µg/mL	> 64 µg/mL					inhibition [15]: Active; inhibition [16]: Active
Cc1cc(-c2ccccc2)cc2c3ccccc3c[n+](C)c12.[Cl-]	4 - 64	2 µg/mL	4 - 164	4 µg/mL	8 - 133	1 µg/mL	4 µg/mL	1 µg/mL	2 µg/mL	2 µg/mL	> 64 µg/mL	2 µg/mL	> 64 µg/mL	16 - 256	32 µg/mL	16 - 256	4 - 67	
Cc1cc(-c2cccc(C(F)(F)F)c2)cc2c3ccccc3c[n+](C)c12.[Cl-]	4 - 64	0.5 µg/mL	4 - 164	0.5 µg/mL	8 - 133	0.25 µg/mL	0.25 µg/mL	0.25 µg/mL	1 µg/mL	2 µg/mL	> 64 µg/mL	1 µg/mL	> 64 µg/mL	16 - 256	16 µg/mL	16 - 256	4 - 67	
Cc1cc(-c2ccc(-c3ccccc3)cc2)cc2c3ccccc3c[n+](C)c12.[Cl-]	64	0.25 µg/mL	4 - 164	0.125 µg/mL	133	0.125 µg/mL	0.125 µg/mL	0.06 µg/mL	0.5 µg/mL	2 µg/mL	> 64 µg/mL	1 µg/mL	> 64 µg/mL	256	64 µg/mL	16 - 256	67	Ratio [17]: 512; Ratio (Streptococcus pyogenes [18]): 8; inhibition [19]: Dose-dependent effect; Ratio [20]: 512; Ratio (Streptococcus pyogenes [21]): 32; Ratio (Streptococcus pyogenes [22]): 1; Ratio (Streptococcus pyogenes [23]): 32
